From patent US10420845B2, “Taggable heteroaromatic drugs and conjugates thereof” (Ramot at Tel-Aviv University Ltd., priority 2015, dated 2019)

Key:
SF-295 = assay: tumor cell-growth inhibition assay, SF-295 cells; assay type: cell-based; conditions: Homo sapiens; cell line SF-295
Procedure: (§1) In order to find out whether the new derivatives retain their potency, the cytotoxicity of the CPT-, TMZ- and bosutinib-ketone analogues was evaluated in comparison to that of the parent drugs.

U-251 = assay: tumor cell-growth inhibition assay, U-251 cells; assay type: cell-based; conditions: Homo sapiens; cell line U-251
Procedure: as §1

HiFR KB cells = assay: proliferation (MTT) assay on KB HiFR cells; assay type: cell-based; conditions: human
Procedure: Proliferation Assay KB HiFR were seeded in 96 well/plates, 2×10^3 cell/100 μL in folate depleted RPMI+10% FBS. After 24 h incubation at 37° C., 5% CO2, 100 μL of serial dilutions (200-0.00002 μM CPT equivalent concentrations) of CPT and CPT-derivatives were added to the wells (final concentration 100-0.00001 μM). In the short exposure (pulse and chase) experiment the treatments were removed after 10 min incubation at 37° C., 5% CO2, the cells were washed once with PBS and incubated with fresh folate depleted RPMI+10% FBS for 72 h. In the long exposure experiment, the cells were incubated for 72 h with the treatment. After 72 h incubation, 30 μL of […] of MTT (3-(4,5-dimethylthiazol-2-yl)-2,5-diphenyltetrazolium bromide) in PBS were added to each well, and incubated for 5 h. After incubation the medium was removed and the cells lysed in 200 μL DMSO and kept under gentle stirring protected from light for 20 min. Absorbance was measured at 560 nm and survival plotted as percentage of untreated control.

[1] = system: U-87 human primary glioblastoma cell; assay: tumor cell-growth inhibition assay, U-87 cells; assay type: cell-based; conditions: U-87 MG
Procedure: as §1
To determine the usefulness of the drug analogues produced harboring a ketone for controlled release and bioconjugation. CPT-ketone 2a was selected for further evaluation. As presented in Scheme 1, a ketone functional group can be masked either through an acid-labile hydrazone linkage or with a photo-labile ketal protecting group. CPT-ketone 2a was masked with a photo-labile protecting group (Gravel et al., 1983; Klan et al., 2013) to produce ketal derivative 6 (FIG. 5). This derivative can be considered as prodrug form of CPT-ketone 2a. […] The cytotoxicity of prodrug 6 was then evaluated in a standard cell-growth inhibition assay before and after irradiation with UV light (FIG. 5B). […] In this example, the prodrug was activated with UV light; however, there are analogues protecting groups that can be removed through a visible or near infrared light (Lu et al., 2003).

[2] = release of CPT-ketone 2a from prodrug 6 with and without UV irradiation; assay type: physicochemical
tumorous cell-lines = assay: tumor cell-growth inhibition assays of ketone derivatives vs native drugs, several tumorous cell-lines; assay type: cell-based; conditions: repeated with several tumorous cell-lines
Procedure: as §1
The assays were repeated with several tumorous cell-lines and the obtained results were similar (FIGS. 3-4).

COc1cc(Nc2c(C#N)cnc3cc(OCCCN4CCN(C)CC4)c(OC)cc23)c(Cl)cc1Cl [Bosutinib, bosutinib, reference compound] gave an IC50 (SF-295) of 17 µM.
In the case of Cn1nnc2c(C(N)=O)ncn2c1=O [TMZ, temozolomide, reference compound], the IC50 (U-251) is reported as 36 µM.
In the case of CCC1(O)C(=O)OCc2c1cc1n(c2=O)Cc2c-1nc1ccccc1c2C(F)(F)CCCC(C)=O (stereo not shown) [CPT-ketone], the “IC50 comparison, cytotoxicity on HiFR KB cells” value (HiFR KB cells) is reported as “relatively similar IC50 values”, the IC50 ([1]; cell line U-87) is reported as 10 nM and the IC50 ([1]; light or radiation study, comparator in prodrug 6 irradiation experiment) is reported as 5 nM.
For CCC1(O)C(=O)OCc2c1cc1n(c2=O)Cc2c-1nc1ccccc1c2C(F)(F)CCCC1(C)OCC(c2cc(OC)c(OC)cc2[N+](=O)[O-])O1 (stereo not shown) [Compound 6], the “release of CPT-ketone 2a” value ([2]; irradiation with UV light over 2 hours under physiological conditions) was “resulted in release of CPT-ketone 2a”, the “release of CPT-ketone 2a” value ([2]; without irradiation) was “No release was observed” and the IC50 ([1]; light or radiation study, prodrug after irradiation with UV light) was 10 nM. For the same compound, the IC50 ([1]; light or radiation study, prodrug before irradiation with UV light) was 350 nM.
Work on CC(=O)CCCC(F)(F)c1nc(C(N)=O)c2nnn(C)c(=O)n12 [TMZ-ketone] yielded an IC50 (U-251) of 35 µM.
CC[C@@]1(O)C(=O)OCc2c1cc1n(c2=O)Cc2cc3ccccc3nc2-1 [CPT, camptothecin, reference compound] gave an IC50 ([1]; cell line U-87) of 7 nM.
For COc1cc(Nc2c(C#N)c(C(F)(F)CCCC(C)=O)nc3cc(OCCCN4CCN(C)CC4)c(OC)cc23)c(Cl)cc1Cl [Bosutinib-ketone], the IC50 (SF-295) was 17 µM.
With CC(=O)CCCC(F)(F)c1nc2nc(N)nc(N)c2nc1CN(C)c1ccc(C(=O)NC(CCC(=O)O)C(=O)O)cc1 (stereo not shown) [MTX-ketone] the “cytotoxicity of ketone analogue compared with native drug” value (tumorous cell-lines) was “completely lost its cytotoxicity”.
